Measurements from patent US20250034139A1, “AMINE COMPOUNDS HAVING ANTI-INFLAMMATORY, ANTIFUNGAL, ANTIPARASITIC, AND ANTICANCER ACTIVITY” (PHARMA CINQ, LLC, priority 2013, published 2025).
Values after ≈ are worked out from the molar mass of the structure shown.

Experiments:
[1] = tested on: THP-1 cells; experiment: Example D: LPS-triggered THP-1 cell death assay, acute/5-hour and chronic/48-hour; format: cell-based, Human; conditions: 10 ng/ml LPS, 0.1 μM test compound, 48 hours
Protocol: Compounds of the invention were tested at 0.1 μM versus AC in the LPS-triggered THP-1 cell death assay. Both acute/5-hour and chronic/48-hour phases of cell death were assessed. Compounds were screened in batches with DMSO as the negative control and AC as the high activity control.

[2] = tested on: PC-3 prostate cancer cells; experiment: Example T: sensitisation of PC-3 cells to doxorubicin, oxaliplatin, paclitaxel or vincristine, Wst1; format: cell-based, human; conditions: PC-3 cells, 72 hours; for viability at 2.5 µM / viability at 0.4 µM: Homo sapiens, Wst1, vehicle = 100, read-out: No Chemo: percent cell survival; for viability at 2.5 µM: compound 2.5 μM alone; for Doxorubicin 3.5 μM: percent cell survival / Oxaliplatin 100 μM: percent cell survival / Paclitaxel 50 μM: percent cell survival / Vincristine 100 nM: percent cell survival: chemotherapy agent alone normalized to 100%; for viability at 0.4 µM: compound 0.4 μM alone
[3] = tested on: 4T1 murine breast cancer cells; experiment: Example S: in vitro anticancer screen, 4T1 cells, Wst1; format: cell-based, mouse; conditions: Mus musculus, 4T1, 18 h, 18 hr, Wst1; for viability at 1 µM: read-out: 4T1 1 μM, percent of cancer cell survival relative to vehicle treated cells; for viability at 5 µM: read-out: 4T1 5 μM, percent of cancer cell survival relative to vehicle treated cells
Method in brief: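 Read-out is Wst1 absorbance (450 nm, reference 630 nm) after roughly 2 hr dye incubation, giving percent cell survival versus vehicle. Before that, compounds at 1 μM or 5 μM were applied for 18 hr to 4T1 cells plated at 1×10^4 per well.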

[4] = tested on: PC3 human prostate cancer cells; experiment: Example S: in vitro anticancer screen, PC-3 cells, Wst1; format: cell-based; conditions: Homo sapiens, PC-3, approximately 20 hours, Wst1, read-out: PC-3, percent of cancer cell survival relative to vehicle treated cells
Method in brief: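 Values give percent survival relative to vehicle, read by Wst1 absorbance (450/630 nm) after 2 h dye incubation, in triplicate. Cells were seeded at 2×10^4/well and treated about 20 h with compound at 0.4, 0.5 or 2.5 μM, depending on compound.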

[5] = tested on: S. cerevisiae; experiment: Example I: Saccharomyces cerevisiae growth inhibition (OD 600 nm); format: cell-based; conditions: for IC50 / MIC: Saccharomyces cerevisiae, 18 hour incubation at 30° C., OD 600 nm, XLfit; for IC50: read-out: IC50, uM (50% inhibition of fungal growth); for MIC: read-out: MIC, uM (99% of inhibition of fungal growth)
Protocol: An overnight culture of S. cerevisiae was dilution in YPD broth to concentration of 40,000/ml and 150 μl/well was plated in 96 well plates. Compounds were then added to each well with concentration ranged from 4 to 50 μM as final concentration. The plates were inoculated at 30° C. overnight with shaking at 220 rpm and absorbance at 600 nm was read after 18 hour incubation.
• 1. One days prior to the inoculum preparation, pick a single colony of S. cerevisiae from the Sabouraud Dextrose Agar plate using the inoculum loop and inoculate into a 50 mL tube containing 10 ml of YPD growth medium • 2. Incubate at 30° C. with shaking at 220 rpm for 24 hours with loosen lid to allow air in and facilitates growth. • 3. Examine an aliquot of the culture under a microscope for yeast cell morphology and lack of bacterial contamination. • 4. Dilute the overnight culture with YPD medium at 1:30 dilution (70 ul to 2.1 ml) and count the number of cells as 4,230,000/ml. • 5. Mix 620 μl of 1:30 dilution and 64.4 ml YPD to make final concentration of 40,000/ml cells • 6. Plated 144 μl/well in four 96-well plates.
• 1. From 10 mM DMSO stock solutions, make serial dilutions of compounds to 0.1, 0.2, 0.3, 0.63 and 1.25 mM solutions • 2. Add 6 μl each of diluted compound solutions per well in duplicates. The final concentrations were 0, 4, 8, 12, 25 and 50 micromolar. • 3. Incubated all plates at 30 C for overnight (˜18 hours) with 220 rpm shaking. • 4. Read absorbance at OD600 for each plate on Spectra Max Plus plate reader. • 5. Calculate the % inhibition of each compound against the DMSO treated cell and plotted.

[6] = tested on: Candida albicans strain 3153; experiment: Example H: Candida albicans growth inhibition (OD 600 nm); format: cell-based
Protocol: A single colony of Candida Albicans was grown in 50 ml YPD broth overnight (19 hr). The cells were washed with PBS and 3.5×10^4 CFU/ml of C. Albicans (144 μl/well) in YPD medium were plated in 96 well plates. Test compounds were then added to each well with concentration ranged from 5 to 40 μM as final concentrations. The plates were incubated at 30° C. overnight (24 hrs) and OD at 600 nm was read at the end of incubation as an index of yeast cell density.
Part-I: Preparation of Candida albicans Cells • 1. One day prior to the inoculum preparation, pick a single colony of Candida albicans strain 3153 (lot #61794) from the Sabouraud Dextrose Agar plate using the inoculum loop and inoculate into a 250 mL flask containing 50 ml of YPD growth medium • 2. Incubate at 30° C. with shaking at 150 rpm for at least 18 hours with loosened lid to allow air in and facilitate growth. • 3. Examine an aliquot of the culture under a microscope for Candida cell morphology and lack of bacterial contamination; >95% of Candida cells should be blastoconidia. • 4. Transfer 25 ml the overnight culture into a 50-ml plastic disposable centrifuge tube, and centrifuge at 1000×g for 20 min. • 5. Discard the supernatant and wash the pellet with 4 ml of PBS at three times. Vortex and centrifuge, 1000×g for 10 min. • 6. After the third wash, dispense the pellet with 2 ml PBS and vortex. • 7. Make three 1:10 serial dilutions in sterile PBS (10^−1, 10^−2, 10^−3) from the 2 ml cell suspension using 15 ml culture tubes. The final volume in each tube is 5 ml. • 8. […] Make a 1:4 dilution in YPD medium from the 50-fold dilution of 10^−3 cell suspension for testing compounds. • The final C. albicans cell concentration for the test: 3.5×10^4 CFU/ml • 10. Plated 144 ul/well of the above dilution of cell on 96-well plates. Part-II: C. Albicans Growth Inhibition Testing with Compounds • 1. From 10 mM DMSO stock solutions, make serial dilutions of compounds to 0.13, 0.25, 0.40, 0.55, 0.75 and 1.0 mM solutions • 2. Add 6 ul each of diluted compound solutions per well in duplicates. The final concentrations were 0, 5, 10, 16, 22, 30 and 40 micromolar. • 3. Incubated all plates at 30 C for overnight (˜24 hours). • 4. Read absorbance at OD600 for each plate. • 5. Calculate the % inhibition of each compound against the DMSO treated cell.

[7] = tested on: imiquimod-induced dermatitis; conditions: for Ear thickness, Mean ± SEM: imiquimod-treated mice; for Ear thickness, Mean ± SEM / PASI Score, Mean ± SEM: topical ointment 0.06% active drug (dexamethasone 0.03%, tacrolimus 0.1%); for PASI Score, Mean ± SEM: scale 0-12
Protocol: Topical imiquimod (IMQ), a toll-like receptor agonist, has been established as a model of Inflammatory skin diseases including psoriasis and atopic dermatitis. Dermal inflammatory changes and gene expression in mice treated with topical imiquimod mimic human psoriasis and dermatitis (van der Fits et al., 2009; Swindell et al., 2011). The effect of a set of compounds of the invention were tested in a mouse model of imiquimod-induced dermatitis, with topical tacrolimus and dexamethasone as comparators for assessing safety and efficacy relative to standard agents used to treat dermatitis in humans.
Commercial 0.1% tacrolimus ointment (ProTopic™[…]) was also used as an active comparator. Petrolatum containing 10% ethanol was used as a control treatment.
Female Balb/C mice (8 weeks old) were randomized and divided into groups of 5 animals each. Polyethylene collars were affixed to the mice to prevent them from easily scratching their ears. 5% imiquimod was applied to both ears of each mouse (20 microliters per ear) daily for 5 days, and then every other day for the full duration of the study. […] On day 7 after initiation of imiquimod, treatment with topical agents was started. Both ears of each mouse were treated with test ointments, with one compound per mouse.
Ear thickness and PASI assessments (Psoriasis Area and Severity Index, a standard psoriasis scoring system) were recorded twice per week throughout the study. The PASI score comprises the sum of evaluations of swelling, erythema and scaling on scales from 0 to 4; the maximum PASI score is 12, and the minimum, in unaffected skin, is 0).

[8] = compound 2.5 μM + doxorubicin 3.5 μM
[9] = compound 2.5 μM + oxaliplatin 100 μM
[10] = compound 2.5 μM + paclitaxel 50 μM
[11] = compound 2.5 μM + vincristine 100 nM
[12] = compound 0.4 μM + doxorubicin 3.5 μM
[13] = compound 0.4 μM + oxaliplatin 100 μM
[14] = compound 0.4 μM + paclitaxel 50 μM
[15] = compound 0.4 μM + vincristine 100 nM

IC50 [5] [µM] | D BW ([7]; mouse, in vivo) [g] | Structure (SMILES) | Viable cell percent change, Chronic/48-hour, Mean [1] [%] | viability at 1 µM [3] [%] | viability at 5 µM [3] [%] | viability at 0.4 µM [4] [%] | Ear thickness, Mean ± SEM [7] | Body Weight (mean ± SEM), Final ([7]; mouse, in vivo) [g] | Body Weight (mean ± SEM), Initial ([7]; mouse, in vivo) [g] | PASI Score, Mean ± SEM [7] | other results
16.9 |  | CCCCCCOCCCCCCCCNc1ccnc2cc(C(F)(F)F)ccc12 [AY, N-[8-(Hexyloxy)octyl]-7-(trifluoromethyl)quinolin-4-amine] | 7.71 | 131 | 34.5 |  |  |  |  |  | viability at 2.5 µM [2]: 50.4%; Doxorubicin 3.5 μM: percent cell survival [2, 8]: 78.9%; Oxaliplatin 100 μM: percent cell survival [2, 9]: 92%; Paclitaxel 50 μM: percent cell survival [2, 10]: 90.1%; Vincristine 100 nM: percent cell survival [2, 11]: 78.7%; viability at 2.5 µM [4]: 50.4%; MIC [5]: 21.9 µM (≈ 9.29 µg/mL)
12.3 |  | CCCCCCNC(=O)c1cccc(Nc2ccnc3ccccc23)c1 [BV, N-Hexyl-3-(quinolin-4-ylamino)benzamide] | 42.14 |  |  | 31.6 |  |  |  |  | MIC [5]: 25 µM (≈ 8.69 µg/mL)
6.31 |  | c1ccc2c(NCCCCCCCCNc3ccnc4ccccc34)ccnc2c1 [Compound AI, N^1,N^8-Di(quinolin-4-yl)octane-1,8-diamine] | 28.60 | 16.2 | 17.9 | 36.4 |  |  |  |  | MIC ([6]; Candida albicans, 3153, 24 hrs at 30° C., YPD, XLfit, read-out: MIC (uM) (99% of inhibition of fungal growth)): 56.4 µM (≈ 22.5 µg/mL); IC50 ([6]; Candida albicans, 3153, read-out: IC50 (uM) (50% inhibition of fungal growth), 24 hrs at 30° C., YPD, XLfit): 18.3 µM; viability at 0.4 µM [2]: 36.4%; Doxorubicin 3.5 μM: percent cell survival [2, 12]: 80.8%; Oxaliplatin 100 μM: percent cell survival [2, 13]: 89%; Paclitaxel 50 μM: percent cell survival [2, 14]: 96.1%; Vincristine 100 nM: percent cell survival [2, 15]: 64.9%; inactive compound (inhibition of yeast growth, in words) ([5]; tested 4 to 50 μM): could not reach near 100% kill at high concentration
 | -0.2 | c1ccc(Oc2ccc(Nc3ccnc4ccccc34)cc2)cc1 [DD, N-(4-Phenoxyphenyl)quinolin-4-amine] | 44.34 | 97.4 | 104 |  | 0.589 ± 0.018 | 20.7 ± 0.6 | 20.9 ± 0.8 | 7.450 ± 0.322 | 
 | -0.1 | c1ccc(Oc2cccc(Nc3ccnc4ccccc34)c2)cc1 [DE, N-(3-Phenoxyphenyl)quinolin-4-amine] | 25.65 | 60.1 | 28.6 |  | 0.593 ± 0.016 | 20.5 ± 0.5 | 20.6 ± 0.5 | 7.250 ± 0.183 | viability at 2.5 µM [2]: 42%; Doxorubicin 3.5 μM: percent cell survival [2, 8]: 69.3%; Oxaliplatin 100 μM: percent cell survival [2, 9]: 84.7%; Paclitaxel 50 μM: percent cell survival [2, 10]: 68.6%; Vincristine 100 nM: percent cell survival [2, 11]: 74%; viability at 2.5 µM [4]: 42%
 |  | CCCCCCCCCCOc1cccc(CNc2ccnc3ccccc23)c1 [DU, N-[3-(Decyloxy)benzyl]quinolin-4-amine] | 17.10 |  |  |  | 0.607 ± 0.027 | 20.9 ± 0.5 | 20.4 ± 0.7 | 7.975 ± 0.621 | D BW (g) ([7]; mouse, in vivo): +0.5 g
 | -0.2 | O=C(NCCCCCCCCNc1ccnc2ccccc12)c1cccnc1 [EF, N-[8-(Quinolin-4-ylamino)octyl]nicotinamide] |  | 15.6 | 23.7 | 16.7 | 0.613 ± 0.010 | 21.3 ± 0.2 | 21.5 ± 0.6 | 7.275 ± 0.199 | viability at 0.4 µM [2]: 16.7%; Doxorubicin 3.5 μM: percent cell survival [2, 12]: 31.3%; Oxaliplatin 100 μM: percent cell survival [2, 13]: 21.7%; Paclitaxel 50 μM: percent cell survival [2, 14]: 24.3%; Vincristine 100 nM: percent cell survival [2, 15]: 23.4%
